Experimental data: US9402818B2, “Use of amides of mono- and dicarboxylic acids in the treatment of renal diseases” (priority 2010, dated 2016)
Values joined by “and” are separate entries in the source; they are usually repeats but may differ in a detail not shown here. Equal values may be shown once.

Legend:
[1] = system: renal damage after administration of streptozotocin to mice; assay: Renal damage after administration of streptozotocin to mice (diabetic nephropathy model); assay type: in vivo, male mice C57BL6/J
From the text: The model of streptozootocin in mice represents a classic and known model of hyperglycemia capable of inducing a progressive renal damage into the animal leading to the renal disease with clear alterations of the characteristic parameters.
The model applied is as follows: male mice C57BL6/J were kept under standard conditions of care. Diabetes was induced into 8-weeks old mice and with an average weight of about 22 g by means of an intraperitoneal injection of streptozotocin in citrate buffer (55 mg/Kg of weight/day) for 5 consecutive days. The control animals were treated in the same conditions using the citrate buffer alone.
Treatments were administered orally, by means of a tube, using both micronized Palmitoylethanolamide- PEAm (10.0 mg/Kg) suspended in a carrier and ultra-micronized palmitoylethanolamide PEAum (10.0 mg/Kg) suspended in a carrier; the results were compared with control animals treated with the carrier alone. A 0.5% carboxymethyl cellulose was used as a carrier.
Diethanolamide of fumaric acid was administered in sterile aqueous saline solution by intraperitoneal injection (10.0 mg/Kg); the results were compared with the animals treated with sterile saline solution alone.
Administration of the carrier and of the two different suspensions containing palmitoylethanolamide or of the injection solution containing diethanolamide of fumaric acid, were performed once per day starting from the day of the last administration of Streptozotocin. Prior to sacrifice, the blood was collected from the saphenous vein using a micro syringe to determining, through conventional methods, the levels of glycemia, glycated haemoglobin and creatinine of the serum.

Solubility in water = assay type: physicochemical
TGF-1β [2] = assay: TGF-1β in renal cortex by ELISA, streptozotocin mice; assay type: in vivo, male mice C57BL6/J; details: pg/mg of total proteins, diabetic mice
Experimental: (§1) The evaluation of TGF-1β on the renal tissue was administered through the following method: small pieces of the renal cortex, carefully separated and weighed, were homogenised in Tris-HCl 10 mM buffer at 7.4 pH containing 2M of NaCl, 1 mM PMSF (phenylmethylsulfonyl fluoride, as a protease inhibitor), 1mM EDTA and 0.01% of Tween 80. The samples were centrifuged at 19,000 rpm for 30 minutes and the supernatant was collected, measured and preserved at −80° C. The evaluation of the TGF-1β was made using the ELISA commercial kit (Quantikine Kit™, Res & Diagn Systems, Minneapolis, USA) and the value expressed in pg/mg of total proteins. The concentration of total proteins was measured using the Bio-Rad commercial test (Hercules, Calif., USA).

TGF-1β [3] = assay: TGF-1β in renal cortex by ELISA, Cisplatin mice; assay type: in vivo, male mice C57BL6/J; details: pg/mg of total proteins
Experimental: as §1, with “The level of TGF-1β” for “The evaluation of TGF-1β”, “tissue was measured through the” for “tissue was administered through the”, “buffer at a 7.4 pH” for “buffer at 7.4 pH”, “protease inhibitor), 1 mM EDTA and” for “protease inhibitor), 1mM EDTA and”, “C. The amount of the” for “C. The evaluation of the”, “TGF-1β was measured using the” for “TGF-1β was made using the”

[4] = system: renal damage after administration of Cisplatin to mice; assay: Renal damage after administration of Cisplatin to mice (nephrotoxicity model); assay type: in vivo, male mice C57BL6/J; details: for Body weight: Cisplatin mice (20 mg/Kg i.p.); for Concentration of creatinine in the serum / Kidney weight/body weight / Amount of albumin excreted with urine (18 hrs prior to sacrifice): Cisplatin mice
From the text: Cisplatin, a known and widely used chemotherapy agent, notoriously produces a serious renal damage in 50% of the patients subjected to treatment. Experimentally an animal model is used in mice, in which Cisplatin induces serious nephrotoxicity with ensuing renal disease. The model applied is as follows: male mice C57BL6/J were kept under standard conditions of care. Nephrotoxicity was induced into 8-weeks old mice and with an average weight of about 23 g, by means of an intraperitoneal injection of Cisplatin dihydrochloride in saline solution (20 mg/Kg in one administration). The control animals were treated in the same conditions using the saline solution alone. The animals were sacrificed 72 hrs after treatment with Cisplatin.
6 treatments were administered orally, one each 12 hrs by means of a tube, using both micronized palmitoylethanolamide-PEAm (10.0 mg/Kg) suspended in a carrier and ultra-micronized palmitoylethanolamide-PEAum (10.0 mg/Kg) suspended in a carrier; the first treatment was carried out 12 hours prior to the administration of the Cisplatin. The results were compared with control animals treated with the carrier alone. A 0.5% carboxymethyl cellulose solution was used as the carrier.
Diethanolamide of fumaric acid was administered in sterile aqueous saline solution by intraperitoneal injection (10.0 mg/Kg) with posology analogous to that of PEA; the results were compared with animals treated with sterile saline solution alone.
Prior to sacrifice, the blood was collected from the saphenous vein using a micro syringe to measure, through conventional methods, the levels of creatinine of the serum.

[5] = system: renal function of nephropathic patients; assay: Effect of ultra-micronized palmitoylethanolamide in nephropathic patients; assay type: in vivo, human; details: 600 mg tablets, 2 per day, 60 days; for GFR Glomerulal Filtration Rate (Creatinine Clearance) T 60: Cockcroft-Gault; for Glycemia under fasting T 60: single patients Paz-04, -05, -06, diabetic nephropathy, compensated with insulin, T 0 values 210, 240, 280 mg/dl
Experimental: Palmitoylethanolamide was administered to patients in form of tablets each containing 600 mg of active ingredient in ultra-micronized form; 2 tablets per day (one every 12 hours, after meals) were administered to patients for 60 consecutive days).
Determination of the GRF (Glomerular Filtration Rate) by the creatinine endogenous marker was carried out according to the […] criteria (K/DOQI clinical practice guidelines for chronic kidney disease, 2002), using the Cockcroft-Gault equation (Cockcroft D. W. et al, 1976).

[6] = 10.0 mg/Kg orally once per day in 0.5% carboxymethyl cellulose, carrier alone 25.12 ± 1.10, non-diabetic 27.82 ± 1.18, 10 mg/kg
[7] = 10.0 mg/Kg orally once per day, carrier alone 1.11 ± 0.02, non-diabetic 0.21 ± 0.01, 10 mg/kg
[8] = 10.0 mg/Kg orally once per day, carrier alone 8.65 ± 0.85, non-diabetic 6.65 ± 0.04, 10 mg/kg
[9] = 10.0 mg/Kg orally once per day, carrier alone 12.80 ± 0.44, non-diabetic 4.89 ± 0.05, 10 mg/kg
[10] = 10.0 mg/Kg orally once per day, carrier alone 340.5, non-diabetic 33.7, 10 mg/kg
[11] = 10.0 mg/Kg orally once per day, carrier alone 408.45 ± 33.12, non-diabetic 122.2 ± 5.62, 10 mg/kg
[12] = 10.0 mg/Kg orally once per day, carrier alone 24.2 ± 5.8, non-diabetic 7.5 ± 0.8, 10 mg/kg
[13] = 10.0 mg/Kg orally every 12 hrs x6, carrier alone 25.3 ± 6.0, control 8.2 ± 0.7, 10 mg/kg
[14] = 10.0 mg/Kg orally every 12 hrs x6, sacrifice 72 hrs, carrier alone 23.10 ± 1.22, control 26.12 ± 1.11
[15] = 10.0 mg/Kg orally every 12 hrs x6, carrier alone 1.26 ± 0.05, control 0.22 ± 0.01, 10 mg/kg
[16] = 10.0 mg/Kg orally every 12 hrs x6, carrier alone 7.22 ± 0.80, control 6.44 ± 0.03, 10 mg/kg
[17] = 10.0 mg/Kg orally every 12 hrs x6, carrier alone 363.75, control 37.4, 10 mg/kg

Compound	Body weight [1, 6]	Concentration of creatinine in the serum [1, 7]	Kidney weight/body weight [1, 8]	Glycated haemoglobin % [1, 9]	Amount of albumin excreted with urine (18 hrs prior to sacrifice) [1, 10]	Glycemia [1, 11]	Level of TGF-1β (TGF-1β [2]; [12])	TGF-1β level in renal cortex (pg/mg total protein) (TGF-1β [3]; [13])	Body weight [4, 14]	Concentration of creatinine in the serum [4, 15]	Kidney weight/body weight [4, 16]	Amount of albumin excreted with urine (18 hrs prior to sacrifice) [4, 17]	also measured
O=C(/C=C/C(=O)NCCO)NCCO [diethanolamide of fumaric acid, Diethanolamide of fumaric acid]													Body weight ([1]; 10.0 mg/Kg i.p. once per day in saline solution, saline alone 24.43 ± 1.15, non-diabetic 27.82 ± 1.18): 26.22 ± 1.02 g; Concentration of creatinine in the serum ([1]; 10.0 mg/Kg i.p. once per day, saline alone 1.51 ± 0.08, non-diabetic 0.21 ± 0.01): 0.51 ± 0.03 mg/dL; Kidney weight/body weight ([1]; 10.0 mg/Kg i.p. once per day, saline alone 9.00 ± 0.56, non-diabetic 6.65 ± 0.04): 7.02 ± 0.46; Glycated haemoglobin % ([1]; 10.0 mg/Kg i.p. once per day, saline alone 13.41 ± 0.63, non-diabetic 4.89 ± 0.05): 12.12 ± 0.26%; Amount of albumin excreted with urine (18 hrs prior to sacrifice) ([1]; 10.0 mg/Kg i.p. once per day, saline alone 315.05, non-diabetic 33.7): 135.7; Glycemia ([1]; 10.0 mg/Kg i.p. once per day, saline alone 406.32 ± 33.44, non-diabetic 122.2 ± 5.62): 386.19 ± 33.98 mg/dL; Solubility in water (Solubility in water): high solubility; Level of TGF-1β (TGF-1β [2]; 10.0 mg/Kg i.p. once per day, saline alone 25.3 ± 4.6, non-diabetic 7.5 ± 0.8): 11.7 ± 3.2 pg/mg; TGF-1β level in renal cortex (pg/mg total protein) (TGF-1β [3]; 10.0 mg/Kg i.p., saline alone 22.1 ± 4.3, control 8.2 ± 0.7): 9.1 ± 2.8 pg/mg; Body weight ([4]; 10.0 mg/Kg i.p. in saline solution, posology as PEA, saline alone 24.22 ± 1.45, control 26.12 ± 1.11): 24.15 ± 1.12 g; Concentration of creatinine in the serum ([4]; 10.0 mg/Kg i.p., saline alone 1.36 ± 0.02, control 0.22 ± 0.01): 0.83 ± 0.06 mg/dL; Kidney weight/body weight ([4]; 10.0 mg/Kg i.p., saline alone 8.15 ± 0.46, control 6.44 ± 0.03): 6.58 ± 0.26; Amount of albumin excreted with urine (18 hrs prior to sacrifice) ([4]; 10.0 mg/Kg i.p., saline alone 351.57, control 37.4): 181.4
CCCCCCCCCCCCCCCC(=O)NCCO [PEAm, Palmitoylethanolamide]	26.52 ± 1.08 g	0.81 ± 0.01 mg/dL	7.85 ± 0.44	11.32 ± 0.38%	289.4	386.12 ± 36.76 mg/dL	15.0 ± 3.0 pg/mg	15.8 ± 3.5 pg/mg	23.58 ± 1.13 g	0.92 ± 0.03 mg/dL	7.85 ± 0.34	270.90	
CCCCCCCCCCCCCCCC(=O)NCCO [PEAum, Palmitoylethanolamide]	26.12 ± 1.21 g	0.44 ± 0.01 mg/dL	7.15 ± 0.38	11.01 ± 0.18%	151.5	380.34 ± 34.16 mg/dL	10.3 ± 2.5 pg/mg	9.4 ± 3.2 pg/mg	24.55 ± 1.09 g	0.48 ± 0.02 mg/dL	6.89 ± 0.42	175.9	GFR Glomerulal Filtration Rate (Creatinine Clearance) T 60 ([5]; single patients Paz-01, -02, -03, chronic inflammatory nephropathy, T 0 values 26.4, 21.4, 20.7): 44.6 and 35.2 and 36.1; GFR Glomerulal Filtration Rate (Creatinine Clearance) T 60 ([5]; single patients Paz-04, -05, -06, diabetic nephropathy (diabetes type 2), T 0 values 18.9, 22.4, 21.8): 41.4 and 35.6 and 39.8; Glycemia under fasting T 60 ([5]; with 10 U ready insulin): 230 mg/dL; Glycemia under fasting T 60 ([5]; with 10 U ready plus 20 U retard insulin): 210 mg/dL; Glycemia under fasting T 60 ([5]; with 12 U retard insulin): 110 mg/dL
